# Laboratory results taken from patent US11192850B2, “N-aryl oxamic acids” (Purdue Research Foundation, priority 2020, dated 2021).
# System: mPTPB transfected Raw264.7 cells
# Assay: Blocking mPTPB-mediated signaling, Western blotting
# Assay type: cell-based, mouse
# Conditions: dose-dependent
smiles,measurement,value
"O=C(O)C(=O)Nc1ccc(C#Cc2ccc(C(F)(F)F)cc2Cl)cc1 [Compound 4t, 2-((4-((2-chloro-4-(trifluoromethyl)phenyl)ethynyl)phenyl)amino)-2-oxoacetic Acid]",Akt activity,reduced
same,IFN-γ induced phosphorylation of ERK1/2 and p38,increased
